Columns and labels:
LuECs = assay: GDNF ELISA in conditioned media from LuECs; assay type: cell-based; conditions: mouse LuECs
Description: (§1) Testis, lung, or liver ECs were plated (10,000 cells ml^−1) on 12 well dishes coated with 0.1% gelatin and cultured for 24 hours. Conditioned media was harvested at 24 and 48 hours after FGF-2 (2 ng ml^−1, 20 ng ml^−1 and 50 ng ml^−1) treatment and analyzed by ELISA for GDNF (Promega GDNF Emax immunoassay system, #G7621) following the manufacturer's instruction. Statistics was analyzed using Graph Pad Prism. For quantification of Gdnf mRNA, total RNA was isolated from the cells using Direct-zol RNA MiniPrep (Zymo Research) and reverse transcribed using High Capacity cDNA Reverse Transcription Kit (Appliedbiosystems), according to the manufacturer's instructions. All gene expression levels were normalized to GAPDH mRNA levels.
(§2) FIG. 2. a. Quantication of GDNF by ELISA in conditioned media from TECs, LuECs and LiECs after treatment with the indicated concentration of FGF-2 for 2 days, n=3. Bar=100 μm. Data are presented as the mean±s.e.m. b. Representative brighteld (BF) and GFP images of 2D cultures of GFP+ SSCs co-cultured with STO cells or TECs plus exogenous GDNF and FGF-2 on days 1 and 8 after seeding. Quantication of stem cell numbers 8 days after co-culture with STO or TECs and the average colony area are shown on the right, n=3. Data are presented as the mean±s.e.m. Bar=100 μm. *P<0.05. c. […]

LiECs = assay: GDNF ELISA in conditioned media from LiECs; assay type: cell-based; conditions: mouse LiECs
Description: as §1, §2

Substance: fibroblast growth factor-2 [FGF-2]
- GDNF production in conditioned media of LuECs after FGF-2 treatment (LuECs): not
- GDNF production in conditioned media of LiECs after FGF-2 treatment (LiECs): not
